Experimental data: patent US20190315823A1, “SMALL CATIONIC ANTI-BIOFILM AND IDR PEPTIDES” (priority 2013, published 2019)
Ends that are not written are not given here.

Columns and labels:
[1] = test system: human peripheral blood mononuclear cells (MCP-1); experiment: SPOT-synthesized derivative screen: production of chemokine MCP-1; format: cell-based; conditions: Table 12, No LPS, human PBMC, peptide at ~18-24 μM; for MCP1: background subtracted 139 (HH2 derivatives), 170 (1018 derivatives), 242 (1002 and hybrid peptides) pg/ml
Description: Venous blood (20 ml) from healthy volunteers was collected in Vacutainer® collection tubes containing sodium heparin as an anticoagulant (Becton Dickinson, Mississauga, ON) in accordance with UBC ethical approval and guidelines. Blood was diluted 1:1 with complete RPMI 1640 medium and separated by centrifugation over a Ficoll-Paque® Plus (Amersham Biosciences, Piscataway, N.J., USA) density gradient. White blood cells were isolated from the buffy coat, washed twice in RPMI 1640 complete medium, and the number of peripheral blood mononuclear cells (PBMC) was determined by Trypan blue exclusion. PBMC (5×10^5) were seeded into 12-well tissue culture dishes (Falcon; Becton Dickinson) at 0.75 to 1×10^6 cells/ml at 37° C. in 5% CO2. The above conditions were chosen to mimic conditions for circulating blood monocytes entering tissues at the site of infection via extravasation.
Following incubation of the cells under various treatment regimens, the tissue culture supernatants were centrifuged at 1000×g for 5 min, then at 10,000×g for 2 min to obtain cell-free samples. Supernatants were aliquoted and then stored at −20° C. prior to assay for various chemokines by capture ELISA (eBioscience and BioSource International Inc., CA, USA respectively)

[2] = test system: LPS-stimulated human peripheral blood mononuclear cells (IL1-β); format: cell-based; conditions: Table 12, cells stimulated with 10 ng/ml LPS; for IL1β Production: LPS alone 1313 (HH2 derivatives), 1927 (1018 derivatives), 2455 (1002 and hybrid peptides) pg/ml
Description: LPS from P. aeruginosa strain H103 was highly purified free of proteins and lipids using the Darveau-Hancock method. Briefly, P. aeruginosa was grown overnight in LB broth at 37° C. Cells were collected and washed and the isolated LPS pellets were extracted with a 2:1 chloroform:methanol solution to remove contaminating lipids. Purified LPS samples were quantitated using an assay for the specific sugar 2-keto-3-deoxyoctosonic acid (KDO assay) and then resuspended in endotoxin-free water (Sigma-Aldrich).

[3] = test system: methicillin resistant Staphylococcus aureus (MRSA) biofilm; conditions: approximate peptide concentration […] (around 3 μg/ml); compared to untreated samples
Description: Methods of assessment of anti-biofilm activity—Biofilm formation was initially analyzed using a static abiotic solid surface assay as described elsewhere (de la Fuente-Nunez et al., 2012). Dilutions (1/100) of overnight cultures were incubated in BM2 biofilm-adjusted medium [62 mM potassium phosphate buffer (pH 7), 7 mM (NH4)2SO4, 2 mM MgSO4, 10 μM FeSO4, 0.4% (wt/vol) glucose, 0.5% (wt/vol) Casamino Acids], or a nutrient medium such as Luria Broth, in polypropylene microtiter plates (Falcon, United States) in the absence (control) or presence of peptide. Peptide was added at time zero (prior to adding the diluted, overnight cultures) in varying concentrations, and the decrease in biofilm formation was recorded at 22-46 h for most bacteria. Planktonic cells were removed, biofilm cells adhering to the side of the tubes were stained with crystal violet, and absorbance at 595 nm was measured using a microtiter plate reader (Bio-Tek Instruments Inc., United States). Some peptides were screened against two Gram negative organisms, P. aeruginosa and K. pneumoniae using a Bioflux apparatus (AutoMate Scientific, Berkeley, Calif.; http://www.autom8.com/bioflux_biofilm.html), which allows for the high-throughput, real-time analysis of biofilms.

Substance	Fold increase in MCP1 cf. untreated cells [1]	MCP1 [1] [pg/mL]	Fold change in IL1β relative to no peptide LPS stimulated cells [2]	IL1β Production [2] [pg/mL]	% Biofilm inhibition [3] [%]
1002-A1: single substituted 1002 peptide (AQRWLIVWRIRK-NH2) [Peptide 1002-A1]	19.8	4559.2	0.05	127	55
1002-A2: single substituted 1002 peptide (VARWLIVWRIRK-NH2) [Peptide 1002-A2]	2.0	245.4	0.05	127	68
1002-A3: single substituted 1002 peptide (VQAWLIVWRIRK-NH2) [Peptide 1002-A3]	4.2	787.2	0.05	127	65
1002-A4: single substituted 1002 peptide (VQRALIVWRIRK-NH2) [Peptide 1002-A4]	0.9	-36.2	0.27	655	52
1002-A5: single substituted 1002 peptide (VQRWAIVWRIRK-NH2) [Peptide 1002-A5]	0.9	-36.2	0.07	182	70
1002-A6: single substituted 1002 peptide (VQRWLAVWRIRK-NH2) [Peptide 1002-A6]	3.0	485.3	0.16	382	28
1002-A7: single substituted 1002 peptide (VQRWLIAWRIRK-NH2) [Peptide 1002-A7]	0.9	-36.2	0.05	132	58
1002-A8: single substituted 1002 peptide (VQRWLIVARIRK-NH2) [Peptide 1002-A8]	0.9	-36.2	0.09	219	52
1002-A9: single substituted 1002 peptide (VQRWLIVWAIRK-NH2) [Peptide 1002-A9]	14.4	3239.9	0.05	127	58
1002-A10: single substituted 1002 peptide (VQRWLIVWRARK-NH2) [Peptide 1002-A10]	2.0	245.4	0.05	127	45
1002-A11: single substituted 1002 peptide (VQRWLIVWRIAK-NH2) [Peptide 1002-A11]	3.0	485.3	0.05	127	52
1002-A12: single substituted 1002 peptide (VQRWLIVWRIRA-NH2) [Peptide 1002-A12]	1.4	91.3	0.05	127	37
1002-G1: single substituted 1002 peptide (GQRWLIVWRIRK-NH2) [Peptide 1002-G1]	14.8	3335.7	0.05	127	68
1002-G2: single substituted 1002 peptide (VGRWLIVWRIRK-NH2) [Peptide 1002-G2]	4.7	891.9	0.05	127	74
1002-G3: single substituted 1002 peptide (VQGWLIVWRIRK-NH2) [Peptide 1002-G3]	14.0	3157.8	0.05	127	56
1002-G4: single substituted 1002 peptide (VQRGLIVWRIRK-NH2) [Peptide 1002-G4]	1.1	33.0	0.29	723	42
1002-G5: single substituted 1002 peptide (VQRWGIVWRIRK-NH2) [Peptide 1002-G5]	0.9	-36.2	0.25	621	59
1002-G6: single substituted 1002 peptide (VQRWLGVWRIRK-NH2) [Peptide 1002-G6]	0.9	-36.2	0.45	1098	26
1002-G7: single substituted 1002 peptide (VQRWLIGWRIRK-NH2) [Peptide 1002-G7]	0.9	-36.2	0.14	353	54
1002-G8: single substituted 1002 peptide (VQRWLIVGRIRK-NH2) [Peptide 1002-G8]	0.9	-36.2	0.28	692	42
